From ChEMBL document CHEMBL1201862, “PubChem BioAssay data set” (2004)
The source made the active and inactive calls.

Assays:
[1] = biological target: T1, Dual specificity protein phosphatase 6 (Rattus norvegicus, UniProt Q64346)
T1 sequence (Q64346 whole entry): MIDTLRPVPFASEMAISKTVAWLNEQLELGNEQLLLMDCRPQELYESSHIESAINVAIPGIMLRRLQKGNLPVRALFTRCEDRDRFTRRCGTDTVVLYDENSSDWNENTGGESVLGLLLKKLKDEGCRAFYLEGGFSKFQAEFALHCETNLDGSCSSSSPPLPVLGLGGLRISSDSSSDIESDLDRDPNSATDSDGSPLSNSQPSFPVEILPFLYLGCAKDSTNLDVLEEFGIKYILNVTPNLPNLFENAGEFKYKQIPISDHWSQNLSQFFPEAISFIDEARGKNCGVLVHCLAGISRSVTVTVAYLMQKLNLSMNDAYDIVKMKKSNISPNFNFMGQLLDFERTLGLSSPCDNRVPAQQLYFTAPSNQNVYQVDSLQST

[2] = biological target: T1, Dual specificity protein phosphatase 6; format: functional
[3] = biological target: T2, Zinc finger protein mex-5 (Caenorhabditis elegans, UniProt Q9XUB2); assay: MEX-5/TCR-2 RNA interaction inhibitors, dose response, biochemical, C. elegans, fluorescence polarization (AID 1960)
T2 sequence (Q9XUB2 whole entry): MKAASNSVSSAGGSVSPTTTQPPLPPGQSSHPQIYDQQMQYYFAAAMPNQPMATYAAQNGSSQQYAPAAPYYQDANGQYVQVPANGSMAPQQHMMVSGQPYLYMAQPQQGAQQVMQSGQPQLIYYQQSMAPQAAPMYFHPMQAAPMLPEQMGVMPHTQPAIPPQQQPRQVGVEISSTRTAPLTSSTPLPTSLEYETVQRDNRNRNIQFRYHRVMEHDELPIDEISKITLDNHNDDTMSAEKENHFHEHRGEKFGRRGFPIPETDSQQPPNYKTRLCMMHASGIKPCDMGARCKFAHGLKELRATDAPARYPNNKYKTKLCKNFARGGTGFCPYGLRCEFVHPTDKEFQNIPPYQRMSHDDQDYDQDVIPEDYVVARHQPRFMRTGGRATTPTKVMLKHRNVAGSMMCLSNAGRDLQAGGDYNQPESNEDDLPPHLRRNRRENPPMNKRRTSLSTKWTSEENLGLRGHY

[4] = biological target: T3, Tyrosine-protein phosphatase non-receptor type 7 (Homo sapiens, UniProt P35236); format: functional
T3 sequence (P35236 whole entry): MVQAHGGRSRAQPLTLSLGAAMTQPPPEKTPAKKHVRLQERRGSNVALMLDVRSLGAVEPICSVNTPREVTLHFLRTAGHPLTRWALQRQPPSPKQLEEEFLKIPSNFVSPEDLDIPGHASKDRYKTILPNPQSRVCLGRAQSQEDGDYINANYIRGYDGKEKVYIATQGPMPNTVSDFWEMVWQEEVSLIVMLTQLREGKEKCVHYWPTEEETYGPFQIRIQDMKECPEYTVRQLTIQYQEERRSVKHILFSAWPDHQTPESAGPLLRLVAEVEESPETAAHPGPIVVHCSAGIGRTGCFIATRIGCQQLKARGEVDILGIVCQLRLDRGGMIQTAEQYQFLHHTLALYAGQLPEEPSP

[5] = biological target: T4, RNA-binding protein pos-1 (Caenorhabditis elegans, UniProt G5EF15); assay: inhibitors of POS-1/mex-3 RNA binding, dose response, biochemical, fluorescence polarization (AID 1964);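 further: purified POS-1 fused to maltose binding protein made in E. coli; potency of compounds blocking POS-1 binding to fluorescent RNA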
T4 sequence (G5EF15 whole entry): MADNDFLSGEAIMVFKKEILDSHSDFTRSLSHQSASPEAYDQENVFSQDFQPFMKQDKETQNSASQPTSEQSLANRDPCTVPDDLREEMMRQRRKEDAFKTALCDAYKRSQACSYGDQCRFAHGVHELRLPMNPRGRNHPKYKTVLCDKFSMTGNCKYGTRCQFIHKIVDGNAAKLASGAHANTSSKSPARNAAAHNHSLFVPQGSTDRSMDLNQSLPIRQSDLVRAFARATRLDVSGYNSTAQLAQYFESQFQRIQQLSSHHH

[6] = biological target: Glyceraldehyde-3-phosphate dehydrogenase (Homo sapiens, UniProt P04406)
[7] = biological target: Heat shock cognate 71 kDa protein (Homo sapiens, UniProt P11142); assay: In Vitro Hsc70 Dose Response Fluorescence Polarization Assay. [Related pubchem assays: 1072 ]
[8] = biological target: Heat shock 70 kDa protein 1A (Homo sapiens, UniProt P0DMV8); assay: Hsp70 inhibitors, SAR follow-up, biochemical, fluorescence polarization (AID 1072)
[9] = Luminescence Cell-Based Dose Response Follow up to Identify Inhibitors of Platelet Dense Granule Release. [Related pubchem assays (depositor defined):AID1663, AID1678, AID1889, AID2519]; format: functional
[10] = blockers of SFLLRN-triggered platelet ATP secretion – cell-based, human platelets, luminescence, dry powder, dose response (AID 493100); format: functional
[11] = biological target: Luciferin 4-monooxygenase (Photinus pyralis, UniProt P08659); assay: firefly luciferase enzyme inhibitors, dose response, biochemical, luminescence (AID 1891)
[12] = Luminescence Cell-Based Dose Confirmation HTS to Identify Inhibitors of Platelet Dense Granule Release. [Related pubchem assays: 1663 (Primary HTS), 1678 (Summary of Project)]; format: functional
[13] = SFLLRN-induced P-Selectin Platelet Surface Expression Measured in Cell-Based System Using Flow Cytometry - 2016-03_Inhibitor_Dose_DryPowder_Activity_Set3. [Related pubchem assays (depositor defined):AID1678]; format: functional
[14] = inhibitors of SFLLRN-triggered platelet P-selectin exposure, dose response, cell-based, fluorescence, flow cytometry, human platelets (AID 2511); format: functional
[15] = biological target: T5, Microphthalmia-associated transcription factor (Homo sapiens, UniProt O75030); assay: TRPM1 promoter luciferase signal decrease, dose response, MITF inhibitor project, cell-based, SK-MEL-5, cherry-picked, set 3 (AID 493073); format: functional
T5 sequence (O75030 whole entry): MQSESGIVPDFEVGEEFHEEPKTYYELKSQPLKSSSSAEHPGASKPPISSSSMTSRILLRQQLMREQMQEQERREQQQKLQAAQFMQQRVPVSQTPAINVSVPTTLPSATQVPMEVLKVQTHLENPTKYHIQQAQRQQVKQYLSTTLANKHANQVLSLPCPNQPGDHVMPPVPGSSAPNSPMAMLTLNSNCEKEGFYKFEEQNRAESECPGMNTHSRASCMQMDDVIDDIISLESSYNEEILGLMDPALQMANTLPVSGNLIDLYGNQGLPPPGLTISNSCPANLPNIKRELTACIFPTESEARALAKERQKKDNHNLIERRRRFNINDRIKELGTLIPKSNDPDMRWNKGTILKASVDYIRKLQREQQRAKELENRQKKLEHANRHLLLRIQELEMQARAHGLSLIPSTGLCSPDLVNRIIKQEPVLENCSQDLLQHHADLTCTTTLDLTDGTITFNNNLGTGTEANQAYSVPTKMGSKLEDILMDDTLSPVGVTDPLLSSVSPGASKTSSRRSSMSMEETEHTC

[16] = Luminescence Cell-Based Dose Response HTS to Identify Inhibitors of 5'UTR Stem-Loop Driven Prion Protein mRNA Translation in H4 Neuroglioblastoma Cells. [Related pubchem assays: 1827 (Project Summary), 1813 (Primary HTS)]; format: functional
[17] = inhibitors of SNCA 5'UTR-driven reporter translation, confirmation, H4 neuroglioma cells, luminescence (AID 1988); format: functional, cell-based
[18] = inhibitors of firefly luciferase expression or activity, dose response, H4 neuroglioma cells, luminescence (AID 1990); format: functional, cell-based
[19] = Luminescence Cell-Based Dose Retest to Confirm Inhibitors of Cancer Stem Cells. [Related pubchem assays (depositor defined):AID2717, AID2721]; format: functional; settings: Homo sapiens
A-375 = assay: MITF: Counter assay: A375 proliferation Measured in Cell-Based System Using Plate Reader - 2084-03_Inhibitor_Dose_DryPowder_Activity. [Related pubchem assays (depositor defined):AID488944]; format: functional; settings: Homo sapiens
Escherichia coli = assay: microbe, parasite or virus in culture

Chain of Heat shock 70 kDa protein 1A (P0DMV8 whole entry): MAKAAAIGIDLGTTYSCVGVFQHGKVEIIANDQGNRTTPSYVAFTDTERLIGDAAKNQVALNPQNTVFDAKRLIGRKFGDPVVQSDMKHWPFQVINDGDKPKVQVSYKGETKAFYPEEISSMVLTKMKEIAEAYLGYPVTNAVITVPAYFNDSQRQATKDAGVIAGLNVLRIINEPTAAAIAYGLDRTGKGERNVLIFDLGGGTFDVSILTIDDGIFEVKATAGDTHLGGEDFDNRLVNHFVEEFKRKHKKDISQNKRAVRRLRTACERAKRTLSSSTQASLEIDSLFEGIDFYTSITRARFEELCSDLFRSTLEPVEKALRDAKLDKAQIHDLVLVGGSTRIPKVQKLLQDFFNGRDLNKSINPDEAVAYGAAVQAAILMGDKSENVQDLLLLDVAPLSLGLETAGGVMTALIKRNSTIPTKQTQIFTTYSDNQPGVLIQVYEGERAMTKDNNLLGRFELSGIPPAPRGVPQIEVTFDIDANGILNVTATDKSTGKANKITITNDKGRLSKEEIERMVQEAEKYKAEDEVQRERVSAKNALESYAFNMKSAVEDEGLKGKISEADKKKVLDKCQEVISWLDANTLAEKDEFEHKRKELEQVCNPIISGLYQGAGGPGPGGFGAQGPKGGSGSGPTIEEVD
Chain of Luciferin 4-monooxygenase (P08659 whole entry): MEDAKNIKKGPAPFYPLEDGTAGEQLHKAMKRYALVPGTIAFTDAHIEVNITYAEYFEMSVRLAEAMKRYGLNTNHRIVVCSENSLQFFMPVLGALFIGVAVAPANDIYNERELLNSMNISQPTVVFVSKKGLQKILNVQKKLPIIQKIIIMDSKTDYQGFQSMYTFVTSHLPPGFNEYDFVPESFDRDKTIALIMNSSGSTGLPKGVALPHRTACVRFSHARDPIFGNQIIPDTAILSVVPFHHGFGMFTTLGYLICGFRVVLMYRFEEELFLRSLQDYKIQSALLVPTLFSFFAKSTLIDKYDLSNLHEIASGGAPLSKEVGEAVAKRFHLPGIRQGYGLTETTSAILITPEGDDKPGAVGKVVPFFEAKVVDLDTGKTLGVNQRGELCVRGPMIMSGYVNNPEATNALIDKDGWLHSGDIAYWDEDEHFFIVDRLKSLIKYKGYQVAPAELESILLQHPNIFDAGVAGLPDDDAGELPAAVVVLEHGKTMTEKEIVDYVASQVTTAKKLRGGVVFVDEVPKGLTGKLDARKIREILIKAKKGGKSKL
Chain of Heat shock cognate 71 kDa protein (P11142 whole entry): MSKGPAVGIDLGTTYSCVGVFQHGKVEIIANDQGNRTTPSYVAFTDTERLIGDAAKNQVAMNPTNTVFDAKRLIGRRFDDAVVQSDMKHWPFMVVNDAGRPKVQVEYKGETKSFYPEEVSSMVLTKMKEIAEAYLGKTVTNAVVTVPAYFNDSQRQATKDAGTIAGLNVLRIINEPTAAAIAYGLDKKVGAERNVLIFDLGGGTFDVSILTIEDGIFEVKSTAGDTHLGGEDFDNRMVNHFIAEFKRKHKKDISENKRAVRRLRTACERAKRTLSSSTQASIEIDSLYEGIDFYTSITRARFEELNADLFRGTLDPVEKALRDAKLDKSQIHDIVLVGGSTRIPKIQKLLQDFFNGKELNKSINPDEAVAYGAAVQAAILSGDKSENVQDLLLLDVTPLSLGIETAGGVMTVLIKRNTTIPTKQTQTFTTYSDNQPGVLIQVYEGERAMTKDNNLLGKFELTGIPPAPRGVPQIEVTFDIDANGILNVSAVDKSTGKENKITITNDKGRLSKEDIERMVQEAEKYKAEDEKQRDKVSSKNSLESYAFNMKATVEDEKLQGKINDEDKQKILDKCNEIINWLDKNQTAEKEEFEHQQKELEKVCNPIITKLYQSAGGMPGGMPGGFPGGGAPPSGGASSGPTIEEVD
Chain of Glyceraldehyde-3-phosphate dehydrogenase (P04406 whole entry): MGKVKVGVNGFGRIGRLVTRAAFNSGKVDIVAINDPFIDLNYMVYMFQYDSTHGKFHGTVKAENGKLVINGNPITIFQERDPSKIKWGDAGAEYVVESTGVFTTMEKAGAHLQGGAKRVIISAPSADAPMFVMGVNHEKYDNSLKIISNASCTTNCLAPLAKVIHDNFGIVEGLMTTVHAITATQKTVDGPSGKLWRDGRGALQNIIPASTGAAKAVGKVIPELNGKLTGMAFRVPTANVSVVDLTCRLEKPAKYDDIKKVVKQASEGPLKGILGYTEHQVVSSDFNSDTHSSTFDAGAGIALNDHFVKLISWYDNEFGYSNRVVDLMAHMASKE

O=C(O)C1Nc2c(cccc2C(F)(F)F)C2C=CCC12 (stereo unspecified)
IC50 [1]: 9.2 µM (active) | IC50 [2]: 7.72 µM (active) | EC50 [3]: 17.7 µM (active) | IC50 [4]: 5.06 µM (active) | EC50 [5]: 26.7 µM (active) | IC50 [6]: > 100 µM (not active) | IC50 [7]: 20.2 µM (active) | IC50 [8]: 8.36 µM (active)

CCCC(=O)Nc1cccc(NC(=O)c2ccccc2Br)c1
EC50 [9]: 4.87 µM (active) | AC50 [10]: 11.2 µM (active) | EC50 [11]: > 112 µM (not active) | EC50 [12]: 1.87 µM (active) | AC50 [13]: < 0.156 µM (active) | EC50 [14]: < 0.3 µM (active)

CC(=O)Nc1sc(C)c(C)c1C(=O)OCC(=O)N(CC(C)C)c1c(N)n(Cc2ccccc2)c(=O)[nH]c1=O
AC50 [15]: 5.29 µM (active) | EC50 [16]: 9.81 µM (active) | EC50 [17]: 3.96 µM (active) | EC50 [18]: 10.2 µM (active) | AC50 [19]: 1.64 µM (active) | AC50 (A-375): 7.68 µM (active)

CCCCOC(=O)C1=C(C)NC(=O)NC1c1ccc2c(c1)OCO2 (stereo unspecified)
AC50 (Escherichia coli): 23.6 µM (active)
